Data from article PMC11374953, “Heteroaryl derivatives of suvorexant as OX1R selective PET ligand candidates: Cu-mediated ^18F-fluorination of boroxines, in vitro and initial in vivo evaluation” (EJNMMI Research, 2024).

What was measured:
[1] = molecular target: T1, human OX1R (Homo sapiens, UniProt O43613); set-up: method as in PMID 32669442; conditions: data from previous work, cited from earlier work
T1 construct: host or cells: HEK293T
T1 sequence (O43613 1-425): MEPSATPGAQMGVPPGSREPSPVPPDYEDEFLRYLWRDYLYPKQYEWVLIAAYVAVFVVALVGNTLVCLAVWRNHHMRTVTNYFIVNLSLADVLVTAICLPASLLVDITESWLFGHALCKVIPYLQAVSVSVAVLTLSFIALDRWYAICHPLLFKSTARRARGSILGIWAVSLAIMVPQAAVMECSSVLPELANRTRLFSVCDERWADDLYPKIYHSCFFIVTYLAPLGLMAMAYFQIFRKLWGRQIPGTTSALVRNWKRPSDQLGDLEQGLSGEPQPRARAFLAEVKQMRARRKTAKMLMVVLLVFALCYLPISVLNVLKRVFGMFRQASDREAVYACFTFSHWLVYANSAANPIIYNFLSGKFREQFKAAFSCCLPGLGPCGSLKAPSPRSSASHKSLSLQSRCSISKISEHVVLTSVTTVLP

[2] = molecular target: T2, human OX2R (Homo sapiens, UniProt O43614); set-up: method as in PMID 32669442; conditions: HEK293T homogenates; data from previous work; read-out: Ki values (nM ± SEM) hOX2R; cited from earlier work
T2 construct: host or cells: HEK293T
T2 sequence (O43614 1-444): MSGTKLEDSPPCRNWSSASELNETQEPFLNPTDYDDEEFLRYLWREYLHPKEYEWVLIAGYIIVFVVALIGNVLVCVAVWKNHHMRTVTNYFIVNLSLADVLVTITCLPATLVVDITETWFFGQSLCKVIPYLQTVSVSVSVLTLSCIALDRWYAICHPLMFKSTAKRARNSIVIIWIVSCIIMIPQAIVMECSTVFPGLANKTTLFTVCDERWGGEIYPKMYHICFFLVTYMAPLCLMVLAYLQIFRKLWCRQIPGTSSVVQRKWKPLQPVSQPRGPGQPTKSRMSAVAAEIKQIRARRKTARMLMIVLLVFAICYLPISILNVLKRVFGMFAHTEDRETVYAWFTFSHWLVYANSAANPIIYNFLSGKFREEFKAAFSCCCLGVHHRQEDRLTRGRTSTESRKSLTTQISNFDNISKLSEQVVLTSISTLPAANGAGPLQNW

[3] = Partition coefficient logD7.4 (n-octanol/PBS); assay type: physicochemical; conditions: n-octanol/PBS pH 7.4, mean ± SD
Experimental: Phosphate-buffered saline (PBS, 480 µL, pH 7.4) and n-octanol (500 µL) were placed in an Eppendorf tube. The radioligand (30–50 kBq, [^18F]1c or [^18F]1f) in PBS (20 µL) was added to the tube, vortexed for 1 min and centrifuged (20,000g, 1 min). Three samples (100 µL) from each layer were collected and measured by a γ-counter (Wallac Wizard 1470, PerkinElmer, USA). After the average cpm values from the triplicate measurements of each layer were calculated, the logD7.4 was determined as the logarithm of the ratio of n-octanol (mean cpm) to PBS (mean cpm). The mean logD7.4 value ± standard deviation was determined by at least three independent experiments each performed in triplicates.

[4] = Plasma protein binding (MicroSpin G-50 columns); assay type: in vitro ADME; conditions: human plasma, 37 °C, read-out: plasma protein binding (PPB) (converted)
Experimental: The radiotracer (100–200 kBq, [^18F]1c or [^18F]1f) in PBS (2 µL) was incubated with human plasma (100 µL) at 37 °C for 10 min. After preconditioning of the microcolumns according to the instructions of the manufacturer (illustra MicroSpin G-50 columns from GE Healthcare), a sample (40 µL) of was applied to the resin. The microspin tubes were centrifuged (2000g, 2 min) and both, eluate and resin were measured by a γ-counter (Wallac Wizard 1470, PerkinElmer, USA). The PPB was calculated as percentage of bound ligand (cpm of resin) from the total amount of radioactivity (sum of cpm of resin and eluate). Samples from incubation of the radiotracer in saline instead of plasma served as negative control. The mean PPB value was determined from at least two independent experiments each performed in triplicate.

[5] = Radioligand stability in human plasma and human serum; assay type: in vitro ADME; conditions: 37 °C, up to 120 min, radio-HPLC
Experimental: (§1) The radioligand (1–2 MBq, [^18F]1c or [^18F]1f) in PBS (20 µL) was incubated with human serum, human plasma or rat plasma (400 µL) at 37 °C. Samples (50 µL) were taken at 5, 10, 15, 30, 60 and 120 min, mixed with aqueous TFA (10%, 50 µL) and centrifuged (20,000g, 2 min). The supernatant (20 µL) was analyzed by radio-HPLC.

[6] = Radioligand stability in rat plasma; assay type: in vitro ADME; conditions: 37 °C, up to 120 min, radio-HPLC
Experimental: as §1

[7] = Dynamic small animal PET imaging of the rat brain; assay type: in vivo
Experimental: Small animal PET experiments in rats were performed to allow for an initial comparison in single animals that were injected with [^18F]1c or [^18F[1f alone, after preinjection of suvorexant (1 mg/kg), and after pretreatment with cyclosporine A (25 mg/kg) (Fig. 3). […] Therefore, to elucidate the P-gp-mediated transport of the compounds, specific experiments were performed.
Fig. 3 Time-activity curves and horizontal PET slices of the rat brain after injection of [^18F]1c (A, C) and [^18F]1f (B, D). Single animals were injected with the tracer alone (“control”, blue) compared to animals preinjected with suvorexant (1 mg/kg, 15 min prior to tracer injection, each n = 1; “blocking”, red) or cyclosporine A (25 mg/kg, 30 min prior to tracer injection, each n = 1; green)
Ten- to 13-week-old female CD Sprague–Dawley rats (250–300 g, Charles River) were housed with free access to standard rat chow (Purina) and water at all times. Dynamic small animal PET scans were performed on an Inveon™ microPET scanner (Siemens Healthineers AG, Erlangen, Germany). All rats were continuously anesthetized using isoflurane (2–3% in oxygen, 0.8 L/min) and placed on a heating pad (37 °C) during the PET scan. Rats were injected intravenously in the tail vein with the radioligand in saline (5–15 MBq in 200–300 µL, [^18F]1c or [^18F]1f). Pretreatment with suvorexant (1 mg/kg, 15 min prior to tracer injection) or cyclosporine A (25 mg/kg, […] to tracer injection) was done intravenously. Dynamic PET scans were acquired from 0 to 60 min p.i. and consisted of 23 frames with increasing duration (12 × 10 s, 3 × 1 min, 5 × 5 min and 3 × 10 min). Subsequently, an attenuation scan with a rotating Co-57 point source was performed. The obtained dynamic emission images were subjected to an attenuation and decay correction. After the iterative maximum a posteriori (MAP) estimation for the image reconstruction, regions of interest (ROIs) were drawn for the whole brain. Computational processing of the PET scans was done with the software PMOD (PMOD Technologies LLC). The data obtained were finally converted into values expressed as percent of injected dose per gram (%ID/g).

[8] = cited from earlier work

SMILES: CC[C@H](C)[C@H]1CN(c2nc3cc(Cl)ccc3o2)CCCN1C(=O)c1cc(C)ccc1-n1nccn1 [JH112]
- Ki ([1]; HEK293T membranes, read-out: Ki values (nM ± SEM) hOX1R): 0.72 ± 0.08 nM
- OX1R selectivity Ki(hOX2R)/Ki(hOX1R) ([1]; Ki for OX2R divided by Ki for OX1R): 75
- Ki [2]: 54 ± 7 nM

SMILES: CC[C@H](C)[C@H]1CN(c2nc3ccc([18F])cc3s2)CCCN1C(=O)c1cc(C)ccc1-n1nccn1 [[^18F]1f, {(S)-2-[(S)-sec-butyl]-4-(6-[^18F]fluorobenzo[d]thiazol-2-yl)-1,4-diazepan-1-yl}[5-methyl-2-(2H-1,2,3-triazol-2-yl)phenyl]methanone]
- logD [3]: 2.37
- fraction unbound at 10 min [4]: 0.23
- stability in human plasma [5]: stable over 120 min
- stability in human serum [5]: stable over 120 min
- stability in rat plasma [6]: stable over 120 min
- brain uptake after pretreatment with cyclosporine A ([7]; cyclosporine A 25 mg/kg i.v. prior to tracer, n = 1): 0.18 %ID/g
- brain uptake after preinjection of suvorexant ([7]; suvorexant 1 mg/kg i.v. 15 min prior to tracer, n = 1): not affected
- time of maximum brain uptake p.i. ([7]; tracer alone i.v.): 24 s
- maximum brain uptake ([7]; tracer alone i.v., whole brain, n = 1): 0.15 %ID/g

SMILES: Cc1ccc(-n2nccn2)c(C(=O)N2CCN(c3nc4cc(Cl)ccc4o3)CC[C@H]2C)c1 [suvorexant]
- protein-bound fraction in the blood [8]: > 99%
